Assay results reported in BindingDB's records for doi:10.1016/0960-894X(95)00398-D (1995).

Target: Beta-2 adrenergic receptor (Rattus norvegicus) (UniProt P10608)
Assay: Compound was evaluated for its binding affinity to beta-2 receptor in rat brain using [3H]- DHA radioligand assay

Sequence of Beta-2 adrenergic receptor (Rattus norvegicus) (P10608 whole entry, looked up): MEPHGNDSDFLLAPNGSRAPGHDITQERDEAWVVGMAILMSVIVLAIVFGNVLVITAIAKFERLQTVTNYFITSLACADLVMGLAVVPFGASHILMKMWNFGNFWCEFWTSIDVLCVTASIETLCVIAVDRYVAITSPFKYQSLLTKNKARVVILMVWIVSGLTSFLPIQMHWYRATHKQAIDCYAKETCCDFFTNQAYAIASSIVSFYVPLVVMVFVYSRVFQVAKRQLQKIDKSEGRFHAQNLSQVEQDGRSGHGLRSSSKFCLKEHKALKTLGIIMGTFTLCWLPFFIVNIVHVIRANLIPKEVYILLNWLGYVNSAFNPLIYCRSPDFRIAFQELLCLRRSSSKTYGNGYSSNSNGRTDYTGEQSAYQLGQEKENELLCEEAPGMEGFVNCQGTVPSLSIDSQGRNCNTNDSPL

- Ki: 1.74 µM
SMILES: COc1cccc2c1CCC[C@H]2CN(C)CCc1ccc2ccoc2c1 [A-80426]
